System: P12-Ichikawa
Assay: cell viability relative to DMSO control; higher = less cytotoxic
Details: 48 h
Procedure, shortened: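 Viability, reported as a per-plate percentage of DMSO wells with cell-free wells as background, came from CellTiter-Glo One luminescence. Reading took place after 48 h at 37°C. Before that, NOMO1 or SEM (500 cells/well) or P12-Ichikawa (1000 cells/well) leukemia cells, adapted for at least four passages in each medium, were seeded in 1536-well plates (5 μl) and pin-dosed with library compounds in DMSO, 47 μM to 0.79 nM over 11 threefold points.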

[1] = HPLM + 10% dialyzed FBS, 0.000781 µM
[2] = HPLM + 10% dialyzed FBS, 0.00234 µM
[3] = HPLM + 10% dialyzed FBS, 0.00702 µM
[4] = HPLM + 10% dialyzed FBS, 0.0211 µM
[5] = HPLM + 10% dialyzed FBS, 0.0632 µM
[6] = HPLM + 10% dialyzed FBS, 0.19 µM
[7] = HPLM + 10% dialyzed FBS, 0.569 µM
[8] = HPLM + 10% dialyzed FBS, 1.71 µM
[9] = HPLM + 10% dialyzed FBS, 5.12 µM
[10] = HPLM + 10% dialyzed FBS, 15.4 µM
[11] = HPLM + 10% dialyzed FBS, 46.1 µM
[12] = RPMI 5 mM glucose + 10% FBS, 0.000781 µM
[13] = RPMI 5 mM glucose + 10% FBS, 0.00234 µM
[14] = RPMI 5 mM glucose + 10% FBS, 0.00702 µM
[15] = RPMI 5 mM glucose + 10% FBS, 0.0211 µM
[16] = RPMI 5 mM glucose + 10% FBS, 0.0632 µM
[17] = RPMI 5 mM glucose + 10% FBS, 0.19 µM
[18] = RPMI 5 mM glucose + 10% FBS, 0.569 µM
[19] = RPMI 5 mM glucose + 10% FBS, 1.71 µM
[20] = RPMI 5 mM glucose + 10% FBS, 5.12 µM
[21] = RPMI 5 mM glucose + 10% FBS, 15.4 µM
[22] = RPMI 5 mM glucose + 10% FBS, 46.1 µM
[23] = RPMI 5 mM glucose + 10% dialyzed FBS, 0.000781 µM
[24] = RPMI 5 mM glucose + 10% dialyzed FBS, 0.00234 µM
[25] = RPMI 5 mM glucose + 10% dialyzed FBS, 0.00702 µM
[26] = RPMI 5 mM glucose + 10% dialyzed FBS, 0.0211 µM
[27] = RPMI 5 mM glucose + 10% dialyzed FBS, 0.0632 µM
[28] = RPMI 5 mM glucose + 10% dialyzed FBS, 0.19 µM
[29] = RPMI 5 mM glucose + 10% dialyzed FBS, 0.569 µM
[30] = RPMI 5 mM glucose + 10% dialyzed FBS, 1.71 µM
[31] = RPMI 5 mM glucose + 10% dialyzed FBS, 5.12 µM
[32] = RPMI 5 mM glucose + 10% dialyzed FBS, 15.4 µM
[33] = RPMI 5 mM glucose + 10% dialyzed FBS, 46.1 µM

| Structure (SMILES) | cell viability [1] [%] | cell viability [2] [%] | cell viability [3] [%] | cell viability [4] [%] | cell viability [5] [%] | cell viability [6] [%] | cell viability [7] [%] | cell viability [8] [%] | cell viability [9] [%] | cell viability [10] [%] | cell viability [11] [%] | cell viability [12] [%] | cell viability [13] [%] | cell viability [14] [%] | cell viability [15] [%] | cell viability [16] [%] | cell viability [17] [%] | cell viability [18] [%] | cell viability [19] [%] | cell viability [20] [%] | cell viability [21] [%] | cell viability [22] [%] | cell viability [23] [%] | cell viability [24] [%] | cell viability [25] [%] | cell viability [26] [%] | cell viability [27] [%] | cell viability [28] [%] | cell viability [29] [%] | cell viability [30] [%] | cell viability [31] [%] | cell viability [32] [%] | cell viability [33] [%] |
| --- | --- | --- | --- | --- | --- | --- | --- | --- | --- | --- | --- | --- | --- | --- | --- | --- | --- | --- | --- | --- | --- | --- | --- | --- | --- | --- | --- | --- | --- | --- | --- | --- | --- |
| C[C@@]12C[C@@]3(O)O[C@@H](O1)[C@]1(COC(=O)c4ccccc4)[C@H]3C[C@@]12O[C@@H]1O[C@H](CO)[C@@H](O)[C@H](O)[C@H]1O | 91.3 | 96 | 103 | 100 | 110 | 99.5 | 103 | 108 | 109 | 97.5 | 76.7 | 94.9 | 99.4 | 111 | 111 | 118 | 105 | 108 | 116 | 118 | 113 | 112 | 89.8 | 95.4 | 103 | 110 | 105 | 97.4 | 108 | 104 | 103 | 110 | 101 |
| CCOC(=O)\C1=C(/C)N\C2=C(C1C3=CC=C(C=C3)C4=CC=CC=C4)\C(=O)CC(C)(C)C2 (stereo unspecified) | 119 | 112 | 123 | 110 | 119 | 110 | 109 | 107 | 108 | 108 | 103 | 108 | 104 | 117 | 117 | 115 | 99.8 | 109 | 103 | 102 | 95.3 | 113 | 112 | 118 | 116 | 114 | 111 | 101 | 104 | 101 | 107 | 98.9 | 95.3 |
| O=C(NC[C@H](O)CO)c1ccncc1Nc1ccc(I)cc1F | 100 | 112 | 71.4 | 113 | 107 | 105 | 102 | 102 | 97.5 | 91.4 | 87.5 | 101 | 118 | 66.3 | 106 | 96 | 90.4 | 98.6 | 91.4 | 88.7 | 78.6 | 59.6 | 94.9 | 119 | 73.4 | 118 | 99.5 | 109 | 105 | 104 | 90.2 | 96.6 | 76.5 |
| N[C@H](CSC(c1ccccc1)(c1ccccc1)c1ccccc1)C(=O)O | 107 | 112 | 121 | 129 | 108 | 114 | 117 | 120 | 115 | 114 | 108 | 97.6 | 112 | 115 | 124 | 116 | 122 | 120 | 119 | 125 | 124 | 131 | 90.9 | 116 | 122 | 116 | 118 | 112 | 115 | 121 | 127 | 121 | 116 |
| Nc1ncnc2c1c(-c1cnc3[nH]ccc3c1)nn2C1CCCC1 | 117 | 121 | 112 | 111 | 103 | 106 | 95.7 | 81.3 | 71.2 | 52.2 | 28.7 | 122 | 118 | 122 | 117 | 106 | 96.5 | 90.1 | 63.5 | 53.7 | 40.3 | 26.2 |  |  |  |  |  |  |  |  |  |  |  |
| CN1CCCN=C1/C=C/c1cccs1.O=C(O)c1cc2ccccc2c(Cc2c(O)c(C(=O)O)cc3ccccc23)c1O | 114 | 117 | 118 | 122 | 112 | 111 | 111 | 111 | 103 | 25 | 10.2 | 109 | 121 | 114 | 122 | 114 | 114 | 105 | 114 | 110 | 115 | 101 | 114 | 123 | 115 | 115 | 120 | 115 | 108 | 112 | 114 | 98.2 | 82.9 |
| C[N]1C=C(C2=C1C=CC=C2)\C3=C(\C(=O)NC3=O)C4=C5CC(CN)CC[N]5C6=C4C=CC=C6 (stereo unspecified) | 103 | 105 | 106 | 113 | 98 | 116 | 110 | 108 | 106 | 84.2 | 60.3 | 97.2 | 108 | 101 | 111 | 90.5 | 117 | 120 | 115 | 94.6 | 66.2 | 45 | 119 | 116 | 119 | 113 | 113 | 129 | 129 | 119 | 109 | 83.4 | 45.7 |
| COc1ccc(-c2ccc3c(N4CCOC[C@@H]4C)nc(N4CCOC[C@@H]4C)nc3n2)cc1CO | 108 | 82.1 | 97 | 82.8 | 83.9 | 77.7 | 75.2 | 74.7 | 64.3 | 37.6 | 6.75 | 93.9 | 58.7 | 80.3 | 77.5 | 66.2 | 59.7 | 60.5 | 58.9 | 54.3 | 42.4 | 18.6 | 103 | 65.6 | 86.6 | 78.7 | 76.1 | 70.8 | 66.5 | 58.3 | 47.2 | 39 | 10.3 |
| CC/1=C(/N2[C@H](SC1)[C@H](NC(=O)[C@H](N)\C3=C\C\C=C/C3)C2=O)C(O)=O | 96.8 | 117 | 116 | 121 | 126 | 115 | 111 | 126 | 128 | 120 | 113 | 99.5 | 91.8 | 110 | 116 | 103 | 120 | 117 | 119 | 120 | 124 | 122 | 111 | 112 | 116 | 112 | 118 | 118 | 118 | 117 | 125 | 133 | 125 |
| O=C(Nc1ccccc1-c1cn2c(CN3CCNCC3)csc2n1)c1cnc2ccccc2n1 | 84.5 | 89.8 | 89.3 | 84.4 | 90.1 | 88.3 | 85.3 | 84.5 | 83.9 | 75.3 | 0.861 | 80.4 | 85.3 | 83.6 | 85.2 | 86.5 | 86.1 | 79.8 | 76.2 | 82.9 | 67.9 | 1.29 | 83 | 84 | 80.3 | 80.5 | 78.1 | 87.4 | 78.4 | 78.7 | 77.8 | 69 | 1.1 |
| CC1(C)O[C@@H]2C[C@H]3[C@@H]4CCC5=CC(=O)C=C[C@]5(C)[C@H]4[C@@H](O)C[C@]3(C)[C@]2(C(=O)CO)O1 | 100 | 104 | 106 | 91.8 | 93 | 90.2 | 70.7 | 64 | 66 | 65.2 | 62.9 | 90.3 | 100 | 107 | 106 | 82.4 | 76.3 | 59.2 | 53 | 52 | 50.4 | 51.5 | 90.2 | 98.8 | 97.8 | 92.4 | 76.6 | 72.8 | 56.6 | 49.8 | 45.4 | 40.9 | 42.1 |
| C[C@@H]\1CC(=O)N\N=C1C2=CC=C(NN=C(C#N)C#N)C=C2 | 91.5 | 92.9 | 94.3 | 94.4 | 95.7 | 92.8 | 93.5 | 87.5 | 91.3 | 86.3 | 29.4 | 88.1 | 93.2 | 92.2 | 89.5 | 93.9 | 92.4 | 96.7 | 91.1 | 93.4 | 81.1 | 15.6 | 81.2 | 85.7 | 88.2 | 92.3 | 92.3 | 90.9 | 91.3 | 80.1 | 83.7 | 72.9 | 12.8 |
| CCOC(=O)C/1=C(O)/C(=O)N(CC2=CC=CC=C2)C1 | 114 | 114 | 114 | 112 | 111 | 113 | 109 | 109 | 99.1 | 99.8 | 100 | 116 | 121 | 115 | 119 | 128 | 120 | 106 | 122 | 114 | 106 | 99.5 | 107 | 109 | 123 | 111 | 113 | 111 | 120 | 106 | 114 | 107 | 99.2 |
| Cc1cn([C@@H]2O[C@H](CO)[C@@H](O)[C@@H]2F)c(=O)[nH]c1=O | 103 | 112 | 116 | 122 | 116 | 122 | 132 | 124 | 126 | 122 | 123 | 101 | 115 | 116 | 120 | 124 | 127 | 119 | 129 | 130 | 123 | 17.6 | 97 | 110 | 111 | 113 | 121 | 126 | 121 | 123 | 123 | 127 | 64.6 |
